This is an account of results in patent US10577610B2, “EpCAM aptamers and conjugates thereof” (Deakin University, priority 2015, dated 2020).

Where two headings read alike, the source gives them in different places. [invdT] = inverted (3'-3') thymidine; {TYE665} = TYE665 fluorescent dye

The test system of one data set is HEY cells. In words: Confocal microscopy internalisation into HEY cells. The class given is cell-based, human. Here is the method: Confocal microscopy was used as a means of visualising aptamer internalisation into the cells. Both aptamers and cells were prepared in the same manner as described above before they were mixed and allowed to incubate at 37° C. The aptamers were used at a concentration of 200 nM and were allowed to incubate for 60 minutes. The concentration for the conjugate (bifunctional) aptamers was 400 nM and these were incubated with the cells for 120 minutes. Ten minutes prior to end of incubation, 2 μL of Hoechst nuclear stain (10 mg/mL) was added to cells. Cells were then washed three times with 100 μL of PBS as described above and resuspended in 20 μL (8×10^5 cells/well) in an 8-chambered slide (Lab-Tek II, Nunc) for visualisation. Cells were incubated in blocking buffer for 60 mins followed by resuspension in binding buffer containing the aptamer and incubated for 60 mins at 37° C. Bisbenzimide Hoechst 33342 (3 mg/ml) (Sigma) was added to the cells during the final 10 min of incubation. The aptamer solution was removed and the cells were washed three times for 5 min each in PBS prior to visualisation using a FluoView FV10i laser scanning confocal microscope (Olympus).
As with the anti-TfR single aptamers, it was necessary to ensure that the binding that had been observed could be attributed to cellular internalisation rather than surface attachment. This was done in a similar manner as before. […]

For data set [1] the following is noted: mouse, in vivo.
The conditions of data set [2]: 40 nmol/Kg i.v. Here is the method:
NOD/SCID mice received a single i.v. injection of 40 nmol/Kg of transferrin/EpCAM aptamer with four various structures (TEPP: Bi3 transferrin^+/EpCAM^+; TEPN: transferrin^+/EpCAM^−; TENP: transferrin^−/EpCAM^+; TENN: Bi1 transferrin^−/EpCAM^−). The concentration of aptamers, expressed as % of injected dose (ID) per mg of tissue, in tissues indicated was determined at 30 min and 60 min after the agent administration using ELISA. Data are means±SEM (n=3).
To evaluate the advantage of positive transferrin-modified aptamers over their negative transferrin-modified counterparts in brain uptake, the biodistribution of aptamers with four various structures (transferrin+/EpCAM+, transferrin+/EpCAM−, transferrin−/EpCAM+, transferrin−/EpCAM−) were studied at 30 min and 60 min after a single i.v. injection of these agents at a dosage of 40 nmol/Kg into NOD/SCID mice.

Turning to “Bi1: aptamer conjugate based on TfR1 and scrambled EpCAM binding loop, negative control, SEQ ID NO:8 (GCGCGTGCACGCGCTAACGGATTCCTTTTCCGN; listed as DNA, further chemistry not given here)”, in the data set on HEY cells (conjugate aptamers, 400 nM, two hour), the “Internalisation into EpCAM-positive HEY cell line” value is reported as “observed to internalise”. The “Fluorescent signal in dissected brain” value in data set [1] is on record as “no signal”.

With “5′-GCGCGGTACCGCGCTAACGGAGGTTGCGTCCGT-3′ (GCGCGGTACCGCGCTAACGGAGGTTGCGTCCGN; listed as DNA, chemistry not given here) [Bi3]”, the results for the “Accumulation in brain, fold higher than transferrin−/EpCAM+” value in data set [2] (30 min) and in data set [2] (60 min) were 3.1 fold and 2.5 fold, respectively. Further, the figures for the “Accumulation in brain, fold higher than transferrin−/EpCAM−” value in data set [2] (30 min) and in data set [2] (60 min) were 12.2 fold and 10.8 fold, respectively.

On to “TfR3: version of TfR1 with scrambled binding loop sequence, SEQ ID NO:6 (DNA GCGTGGTACCACGC; DNA, 5' {TYE665}, 3' [invdT], backbone not given here)”, for which, in the data set on HEY cells, the “Internalisation of anti-TfR aptamer into HEY cells” value is on record as “not detected”.
